# Results taken from ChEMBL document CHEMBL5370660, “Design of a Supersoft Topical JAK Inhibitor, Which Is Effective in Human Skin but Rapidly Deactivated in Blood” (J Med Chem, 2023).
# The source made the active and inactive calls. The rule behind the calls is not given here.
# Key:
# [1] = target: JAK2/JAK1 (Homo sapiens, UniProt O60674+P23458); assay: Inhibition of JAK1/2-mediated STAT1 phosphorylation in human M07E cells preincubated for 30 mins followed by IFN-alpha stimulation measured after 15 mins by flow cytometry; type: cell-based
# JAK2/JAK1, sequence (P23458 whole entry): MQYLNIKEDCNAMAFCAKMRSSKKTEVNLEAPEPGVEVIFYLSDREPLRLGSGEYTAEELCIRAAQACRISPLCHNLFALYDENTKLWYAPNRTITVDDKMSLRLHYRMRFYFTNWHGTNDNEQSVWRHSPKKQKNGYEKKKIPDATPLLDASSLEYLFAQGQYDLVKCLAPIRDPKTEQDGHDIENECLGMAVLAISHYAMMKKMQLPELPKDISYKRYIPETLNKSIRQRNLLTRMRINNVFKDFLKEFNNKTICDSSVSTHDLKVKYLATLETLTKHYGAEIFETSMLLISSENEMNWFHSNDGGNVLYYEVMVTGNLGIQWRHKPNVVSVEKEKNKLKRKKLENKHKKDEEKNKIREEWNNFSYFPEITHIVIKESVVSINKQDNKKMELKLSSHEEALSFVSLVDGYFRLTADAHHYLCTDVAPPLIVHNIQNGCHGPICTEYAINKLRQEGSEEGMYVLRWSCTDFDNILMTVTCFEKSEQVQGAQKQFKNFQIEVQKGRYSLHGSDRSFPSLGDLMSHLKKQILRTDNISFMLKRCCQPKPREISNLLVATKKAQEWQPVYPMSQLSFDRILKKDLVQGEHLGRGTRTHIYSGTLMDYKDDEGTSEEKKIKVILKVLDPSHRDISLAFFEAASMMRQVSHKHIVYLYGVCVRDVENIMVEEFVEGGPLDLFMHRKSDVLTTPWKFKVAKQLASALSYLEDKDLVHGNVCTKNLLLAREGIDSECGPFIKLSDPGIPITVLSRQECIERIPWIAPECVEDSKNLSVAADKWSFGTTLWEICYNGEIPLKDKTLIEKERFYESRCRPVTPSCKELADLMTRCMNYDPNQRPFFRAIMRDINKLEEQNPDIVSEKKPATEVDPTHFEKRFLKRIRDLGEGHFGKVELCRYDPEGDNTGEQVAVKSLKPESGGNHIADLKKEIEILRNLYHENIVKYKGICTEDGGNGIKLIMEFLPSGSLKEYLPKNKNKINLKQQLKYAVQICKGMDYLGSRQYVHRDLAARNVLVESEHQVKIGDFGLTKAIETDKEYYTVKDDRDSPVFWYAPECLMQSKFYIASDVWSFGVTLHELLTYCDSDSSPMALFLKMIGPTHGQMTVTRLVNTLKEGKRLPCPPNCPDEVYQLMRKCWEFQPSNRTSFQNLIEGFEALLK
# JAK2/JAK1, sequence (O60674 whole entry): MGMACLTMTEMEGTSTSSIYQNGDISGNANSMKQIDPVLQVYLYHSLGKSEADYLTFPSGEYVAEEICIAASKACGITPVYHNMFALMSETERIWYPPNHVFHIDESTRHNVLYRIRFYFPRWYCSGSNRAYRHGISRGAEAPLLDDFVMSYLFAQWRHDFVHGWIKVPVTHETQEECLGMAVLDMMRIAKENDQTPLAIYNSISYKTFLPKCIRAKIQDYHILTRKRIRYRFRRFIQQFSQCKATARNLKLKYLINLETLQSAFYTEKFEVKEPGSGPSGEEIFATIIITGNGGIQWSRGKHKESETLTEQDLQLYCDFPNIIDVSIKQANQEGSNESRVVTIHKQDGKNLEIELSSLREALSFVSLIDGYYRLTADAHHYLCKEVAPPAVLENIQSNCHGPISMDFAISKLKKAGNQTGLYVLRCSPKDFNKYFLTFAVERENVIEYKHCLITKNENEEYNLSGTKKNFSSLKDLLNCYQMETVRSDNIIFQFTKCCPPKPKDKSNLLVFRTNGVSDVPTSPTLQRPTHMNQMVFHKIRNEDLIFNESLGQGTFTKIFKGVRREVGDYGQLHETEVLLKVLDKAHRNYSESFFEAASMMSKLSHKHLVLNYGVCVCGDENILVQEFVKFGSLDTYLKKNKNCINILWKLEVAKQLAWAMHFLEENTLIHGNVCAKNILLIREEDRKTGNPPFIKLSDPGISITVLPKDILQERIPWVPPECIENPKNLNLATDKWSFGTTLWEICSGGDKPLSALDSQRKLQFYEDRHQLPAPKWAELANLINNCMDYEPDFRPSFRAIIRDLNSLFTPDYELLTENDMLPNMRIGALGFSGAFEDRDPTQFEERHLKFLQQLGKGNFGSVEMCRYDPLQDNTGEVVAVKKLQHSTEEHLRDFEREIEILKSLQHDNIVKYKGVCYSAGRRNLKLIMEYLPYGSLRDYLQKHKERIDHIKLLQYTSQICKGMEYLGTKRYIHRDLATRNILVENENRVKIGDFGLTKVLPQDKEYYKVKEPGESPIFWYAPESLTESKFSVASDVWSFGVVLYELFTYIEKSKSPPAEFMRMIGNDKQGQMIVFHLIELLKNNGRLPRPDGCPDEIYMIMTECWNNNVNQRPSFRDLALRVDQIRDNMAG
# [2] = Stability in human whole blood assessed as half life at 1 uM incubated upto 8 hrs by LC-MS/MS analysis; type: ADME, tissue-based
# [3] = Metabolic stability in human skin S9 fraction measured upto 120 mins by LC-MS analysis; type: ADME, subcellular
# [4] = target: T1, C-C motif chemokine 17 (Homo sapiens, UniProt Q92583); assay: Inhibition of TARC in human skin immersion culture at 10 uM preincubated for 3 hrs followed by IL-4/IL-13 stimulation measured after 18 hrs by MSD assay relative to control; type: tissue-based, Skin of body; conditions: time 21 hrs
# T1 sequence (Q92583 whole entry): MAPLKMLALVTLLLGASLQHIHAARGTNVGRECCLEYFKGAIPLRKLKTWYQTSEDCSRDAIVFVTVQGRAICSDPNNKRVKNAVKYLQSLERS
# [5] = Permeability of compound; type: ADME; conditions: not told; read-out: permeability
# [6] = Lipophilicity, LogD of compound; type: physicochemical; conditions: octanol/water
# [7] = Thermodynamic solubility of the compound at pH 6.8 using crystalline form of sample; type: physicochemical; conditions: read-out: Therm_solubility
# [8] = Saturation solubility of compound in PEG400/transcutol/benzyl alcohol/water mixture using crystalline form of sample; type: physicochemical
# [9] = system: Homo sapiens; assay: (§1) Inhibition of TARC gene expression in IL-4/IL-13-stimulated fresh human skin explant using Franz diffusion cell model at 0.5 % administered topically preincubated overnight followed by fresh media replacement in receiver fluid without compound and subsequently stimulated with IL-4/IL-13 measured after 24 hrs by RT-qPCR analysis; type: functional, tissue-based; conditions: Skin of body
# [10] = system: Homo sapiens; assay: as §1, with “MMP12” for “TARC”; type: functional, tissue-based; conditions: Skin of body
# [11] = system: Homo sapiens; assay: as §1, with “Eotaxin-3” for “TARC”; type: functional, tissue-based; conditions: Skin of body
# [12] = (§2) Stability of compound in fresh human skin explant using Franz diffusion cell model assessed as compound concentration in dermis at 0.5 % administered topically preincubated overnight followed by fresh media replacement in receiver fluid without compound and subsequently stimulated with IL-4/IL-13 measured after 40 hrs by LC-MS/MS analysis; type: ADME, tissue-based, Skin of body; conditions: topical or ocular, read-out: Ct
# [13] = as §2, with “Drug penetration” for “Stability of compound”, “receiver fluid” for “dermis”, “24” for “40”; type: ADME, tissue-based, Skin of body; conditions: artificial membrane
# [14] = system: Homo sapiens; assay: Downregulation of GSVA score in human abdominal skin model at 0.2 % administered topically as cream treated for 24 hrs followed by removal of cream and stratum corneum and subsequently stimulated with IL-4/IL-13 measured after 3 hrs; type: functional, tissue-based; conditions: Abdomen skin, route top, time 27.0 hrs
# [15] = target: Tyrosine-protein kinase JAK1 (Homo sapiens, UniProt P23458); assay: Inhibition of GST-fused JAK1 (866 to 1154 residues)(unknown origin) using FITC-Ahr-KKSRGDYMTMQIG-NH2 peptide as substrate incubated for 30 mins in presence of ATP by caliper microfluidic mobility shift assay
# Tyrosine-protein kinase JAK1, sequence (P23458 whole entry, the tested form may be a part): as the sequence (P23458 whole entry) above
# [16] = target: Tyrosine-protein kinase JAK2 (Homo sapiens, UniProt O60674); assay: Inhibition of GST-fused JAK2 (808 to 1132 residues)(unknown origin) using Carboxyfluorescein-Ahx-GGEEEEYFELVKKKK peptide as substrate incubated for 30 mins in presence of ATP by caliper microfluidic mobility shift assay
# Tyrosine-protein kinase JAK2, sequence (O60674 whole entry, the tested form may be a part): as the sequence (O60674 whole entry) above
# [17] = target: T2, Tyrosine-protein kinase JAK3 (Homo sapiens, UniProt P52333); assay: Inhibition of GST-fused JAK3 (811 to 1124 residues)(unknown origin) using Carboxyfluorescein-Ahx-GGEEEEYFELVKKKK peptide as substrate incubated for 30 mins in presence of ATP by caliper microfluidic mobility shift assay
# T2 sequence (P52333 whole entry): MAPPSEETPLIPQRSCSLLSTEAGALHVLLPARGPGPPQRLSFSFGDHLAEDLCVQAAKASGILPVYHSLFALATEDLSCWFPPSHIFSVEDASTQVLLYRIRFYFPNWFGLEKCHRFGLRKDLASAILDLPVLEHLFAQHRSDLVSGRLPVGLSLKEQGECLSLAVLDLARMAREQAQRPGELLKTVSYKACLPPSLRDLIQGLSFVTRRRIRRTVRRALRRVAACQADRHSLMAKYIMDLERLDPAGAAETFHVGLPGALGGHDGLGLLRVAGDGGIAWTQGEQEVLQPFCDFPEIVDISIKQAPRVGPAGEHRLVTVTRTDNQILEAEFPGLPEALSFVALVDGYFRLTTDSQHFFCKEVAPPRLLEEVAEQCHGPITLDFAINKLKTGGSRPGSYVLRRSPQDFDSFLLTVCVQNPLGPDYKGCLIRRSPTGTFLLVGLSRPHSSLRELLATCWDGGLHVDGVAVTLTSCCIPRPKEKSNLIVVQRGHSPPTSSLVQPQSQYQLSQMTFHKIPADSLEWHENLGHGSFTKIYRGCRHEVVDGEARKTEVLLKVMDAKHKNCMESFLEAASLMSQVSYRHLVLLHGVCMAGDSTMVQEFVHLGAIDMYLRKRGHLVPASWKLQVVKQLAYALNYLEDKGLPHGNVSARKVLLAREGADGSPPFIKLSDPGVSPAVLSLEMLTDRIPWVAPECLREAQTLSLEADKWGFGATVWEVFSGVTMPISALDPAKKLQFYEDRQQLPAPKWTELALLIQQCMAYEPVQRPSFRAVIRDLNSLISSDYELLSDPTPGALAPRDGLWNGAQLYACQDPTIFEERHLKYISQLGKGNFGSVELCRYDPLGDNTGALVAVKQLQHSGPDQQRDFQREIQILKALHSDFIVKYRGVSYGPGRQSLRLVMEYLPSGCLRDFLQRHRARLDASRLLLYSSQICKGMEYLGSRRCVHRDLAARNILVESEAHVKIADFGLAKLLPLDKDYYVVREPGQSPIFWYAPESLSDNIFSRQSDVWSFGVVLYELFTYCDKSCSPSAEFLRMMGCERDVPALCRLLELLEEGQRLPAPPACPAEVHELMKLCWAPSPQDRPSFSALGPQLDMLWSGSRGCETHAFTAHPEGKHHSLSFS
# [18] = target: Non-receptor tyrosine-protein kinase TYK2 (Homo sapiens, UniProt P29597); assay: Inhibition of GST-fused TYK2 (888 to 1187 residues)(unknown origin) using FITC-Ahr-KKSRGDYMTMQIG-NH2 peptide as substrate incubated for 30 mins in presence of ATP by caliper microfluidic mobility shift assay
# Non-receptor tyrosine-protein kinase TYK2, sequence (P29597 whole entry, the tested form may be a part): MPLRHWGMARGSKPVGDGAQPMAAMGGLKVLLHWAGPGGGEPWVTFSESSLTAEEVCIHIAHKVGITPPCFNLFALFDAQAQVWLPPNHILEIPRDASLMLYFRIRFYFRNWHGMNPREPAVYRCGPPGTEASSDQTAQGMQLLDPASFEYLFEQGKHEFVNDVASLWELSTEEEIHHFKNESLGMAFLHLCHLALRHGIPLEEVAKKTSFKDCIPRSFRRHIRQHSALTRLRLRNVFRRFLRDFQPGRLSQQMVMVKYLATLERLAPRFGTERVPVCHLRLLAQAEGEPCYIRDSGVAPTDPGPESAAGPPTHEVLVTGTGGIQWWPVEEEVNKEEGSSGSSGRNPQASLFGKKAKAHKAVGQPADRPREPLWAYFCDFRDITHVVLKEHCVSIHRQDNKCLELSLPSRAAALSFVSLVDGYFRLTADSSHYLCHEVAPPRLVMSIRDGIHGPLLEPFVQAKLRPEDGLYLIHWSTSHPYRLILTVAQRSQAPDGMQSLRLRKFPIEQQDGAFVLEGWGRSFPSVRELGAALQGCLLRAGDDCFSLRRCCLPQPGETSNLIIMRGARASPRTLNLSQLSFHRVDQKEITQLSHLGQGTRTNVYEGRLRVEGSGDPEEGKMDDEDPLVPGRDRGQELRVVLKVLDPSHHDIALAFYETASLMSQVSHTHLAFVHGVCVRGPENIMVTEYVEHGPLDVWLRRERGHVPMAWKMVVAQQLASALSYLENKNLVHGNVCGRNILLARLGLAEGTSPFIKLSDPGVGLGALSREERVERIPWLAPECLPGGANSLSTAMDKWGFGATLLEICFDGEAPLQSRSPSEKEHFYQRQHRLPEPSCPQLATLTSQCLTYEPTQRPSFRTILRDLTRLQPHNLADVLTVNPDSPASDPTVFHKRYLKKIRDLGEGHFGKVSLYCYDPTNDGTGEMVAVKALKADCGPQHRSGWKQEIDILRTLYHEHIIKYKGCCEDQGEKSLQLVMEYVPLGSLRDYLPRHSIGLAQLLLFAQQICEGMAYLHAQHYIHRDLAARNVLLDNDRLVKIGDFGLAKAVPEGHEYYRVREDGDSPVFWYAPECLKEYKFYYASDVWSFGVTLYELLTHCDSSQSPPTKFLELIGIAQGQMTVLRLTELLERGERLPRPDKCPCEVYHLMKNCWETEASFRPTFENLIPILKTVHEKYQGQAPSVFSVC
# [19] = target: T3, JAK3/JAK1 (Homo sapiens, UniProt P23458+P52333); assay: Inhibition of JAK1/3-mediated STAT5 phosphorylation in human M07E cells preincubated for 30 mins followed by IL-15 stimulation measured after 15 mins by flow cytometry; type: cell-based
# T3 sequence (P23458 whole entry, one chain of several): as the sequence (P23458 whole entry) above
# [20] = target: T3, JAK3/JAK1; assay: Inhibition of JAK1/3-mediated STAT5 phosphorylation in human whole blood incubated for 30 mins followed by IL-2 addition measured after 15 mins by flow cytometry; type: tissue-based
# [21] = target: T4, Eukaryotic translation initiation factor 2-alpha kinase 3 (Homo sapiens, UniProt Q9NZJ5); assay: Inhibition of EIF2AK3 (unknown origin)
# T4 sequence (Q9NZJ5 whole entry): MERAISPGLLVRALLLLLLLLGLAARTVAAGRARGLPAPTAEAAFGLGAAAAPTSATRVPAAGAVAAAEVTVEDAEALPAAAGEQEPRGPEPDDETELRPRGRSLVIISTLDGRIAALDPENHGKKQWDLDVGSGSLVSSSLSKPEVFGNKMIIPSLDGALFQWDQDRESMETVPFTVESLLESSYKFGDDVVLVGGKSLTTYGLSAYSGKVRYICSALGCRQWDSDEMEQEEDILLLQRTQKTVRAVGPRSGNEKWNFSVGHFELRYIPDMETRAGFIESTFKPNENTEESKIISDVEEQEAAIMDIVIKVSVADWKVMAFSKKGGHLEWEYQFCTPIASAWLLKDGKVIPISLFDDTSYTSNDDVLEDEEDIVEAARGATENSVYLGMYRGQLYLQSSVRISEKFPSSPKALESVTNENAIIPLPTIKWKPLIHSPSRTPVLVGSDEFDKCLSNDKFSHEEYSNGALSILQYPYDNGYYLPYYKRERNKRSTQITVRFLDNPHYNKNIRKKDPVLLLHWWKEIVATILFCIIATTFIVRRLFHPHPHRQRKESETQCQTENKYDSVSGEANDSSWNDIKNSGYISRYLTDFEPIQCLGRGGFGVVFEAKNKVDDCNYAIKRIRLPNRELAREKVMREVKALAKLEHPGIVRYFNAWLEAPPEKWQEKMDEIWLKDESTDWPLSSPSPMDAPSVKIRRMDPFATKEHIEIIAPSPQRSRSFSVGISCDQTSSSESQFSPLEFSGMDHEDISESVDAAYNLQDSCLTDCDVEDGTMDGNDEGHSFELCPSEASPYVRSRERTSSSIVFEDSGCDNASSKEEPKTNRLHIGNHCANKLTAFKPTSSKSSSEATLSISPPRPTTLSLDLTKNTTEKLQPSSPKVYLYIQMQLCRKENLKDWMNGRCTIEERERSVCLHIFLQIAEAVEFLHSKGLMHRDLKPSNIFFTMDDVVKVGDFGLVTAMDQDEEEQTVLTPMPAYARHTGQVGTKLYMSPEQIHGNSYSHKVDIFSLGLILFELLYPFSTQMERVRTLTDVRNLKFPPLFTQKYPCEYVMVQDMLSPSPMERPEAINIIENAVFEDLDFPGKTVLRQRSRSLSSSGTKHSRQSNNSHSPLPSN
# [22] = target: T5, Mitogen-activated protein kinase kinase kinase 2 (Homo sapiens, UniProt Q9Y2U5); assay: Inhibition of MAP3K2 (unknown origin)
# T5 sequence (Q9Y2U5 whole entry): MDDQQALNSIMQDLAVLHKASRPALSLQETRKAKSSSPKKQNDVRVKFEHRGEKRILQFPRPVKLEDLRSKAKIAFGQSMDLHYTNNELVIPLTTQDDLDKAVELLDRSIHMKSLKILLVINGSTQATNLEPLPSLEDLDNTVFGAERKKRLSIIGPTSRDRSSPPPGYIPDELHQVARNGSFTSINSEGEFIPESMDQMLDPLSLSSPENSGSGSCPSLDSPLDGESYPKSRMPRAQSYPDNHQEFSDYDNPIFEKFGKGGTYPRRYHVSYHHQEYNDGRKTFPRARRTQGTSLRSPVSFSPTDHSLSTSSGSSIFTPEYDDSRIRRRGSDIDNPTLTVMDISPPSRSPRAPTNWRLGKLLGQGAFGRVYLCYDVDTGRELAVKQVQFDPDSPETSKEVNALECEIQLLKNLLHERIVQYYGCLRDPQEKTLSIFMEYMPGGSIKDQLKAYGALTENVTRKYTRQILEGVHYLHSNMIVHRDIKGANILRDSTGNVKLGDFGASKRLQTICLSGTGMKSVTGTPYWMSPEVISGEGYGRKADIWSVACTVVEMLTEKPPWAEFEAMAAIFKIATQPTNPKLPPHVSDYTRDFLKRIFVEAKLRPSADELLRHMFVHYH
# [23] = Half life in human blood; type: ADME, tissue-based
# [24] = Solubility of the compound at pH 6.8 using amorphous form of sample; type: physicochemical; conditions: buffer
# [25] = Saturation solubility of compound in PEG400/transcutol/benzyl alcohol/water mixture using amorphous form of sample; type: physicochemical
# [26] = Stability of compound under light stress assessed as compound decomposition under sunlight with intensity of 4000 KJ/m2, irradiation of 250 W/m2, wavelength of >290 nm, temperature of 37 degreeC for 4 hrs using amorphous form of sample; type: ADME; conditions: read-out: Drug degradation
# [27] = Stability of compound under temperature stress assessed as compound degradation at 50 degreeC measured after 7 days using amorphous form of sample; type: physicochemical; conditions: time 7 day; read-out: Drug degradation
IC50 [1] [nM],half-life at 1 µM [2] [min],half-life [3] [min],Papp [5] [×10⁻⁶ cm/s],logD [6],IC50 [16] [nM],SMILES,IC50 [15] [nM],IC50 [17] [nM],IC50 [19] [µM],IC50 [20] [µM],also measured
85,> 240,> 240,6.7,4.4,–,Cc1cccc(Nc2cc(Nc3ccccc3Cl)c(C(N)=O)cn2)n1,–,–,–,–,"inhibition at 10 µM [4]: 100%; solubility thermodynamic [7]: 0.1 µg/mL; solubility thermodynamic [8]: 2800 µg/mL; inhibition [9]: Active; inhibition [10]: Active; inhibition [11]: Active; concentration at 40 h, 0.5 % [12]: 33 µM; Drug uptake [13]: 0.004 µM; Activity [14]: Active"
> 10000,> 240,< 240,0.5,0.25,11,COc1ccccc1Nc1cc(Nc2ccc(CC(=O)O)cn2)ncc1C(N)=O,5,10,7.02,> 40,IC50 [18]: 7 nM; IC50 [21]: < 100 nM; IC50 [22]: < 100 nM
71,4,7,–,–,5220,CCOC(=O)Oc1cccc(Nc2cc(Nc3ccccc3Cl)c(C(N)=O)cn2)n1,–,–,–,–,half-life [23]: ~4 min

SMILES,IC50 [1] [nM],half-life at 1 µM [2] [min],half-life [3] [min],Papp [5] [×10⁻⁶ cm/s],logD [6],IC50 [16] [nM],IC50 [15] [nM],IC50 [17] [nM],IC50 [19] [µM],IC50 [20] [µM],also measured
COC(=O)Cc1ccc(Nc2cc(Nc3ccccc3Cl)c(C(N)=O)cn2)nc1,37,5,12,–,3.8,10,9,13,0.027,7.85,solubility [24]: 3 µg/mL; solubility thermodynamic [25]: 5400 µg/mL; degraded at 4 h [26]: 7%; degraded at 168 h [27]: 11%
